{"source": "paper PMC10747602", "about": "“Dose Response, Dosimetric, and Metabolic Evaluations of Replacement PFAS Perfluoro-(2,5,8-trimethyl-3,6,9-trioxadodecanoic) Acid (HFPO-TeA)” (Toxics, 2023)", "key": {"[1]": {"system": "Thyroid hormones T3, rT3, and T4", "test": "Plasma thyroid hormone assessment", "format": "in vivo, Sprague Dawley rats", "conditions": "5 days", "procedure": "Information on the chemicals used in the plasma thyroid hormone analysis can be found in Supplementary Text S2 and Table S3. Thyroid hormones T3, rT3, and T4 were extracted from 20 µL of plasma (5 days) following the procedure outlined by O’Shaughnessy et al.. Briefly, plasma was spiked with internal standards ^13C6-T3, ^13C6-rT3, and ^13C6-T4, and extracted using Evolute CX SPE plates (10 mg, 1 mL, Biotage, Charlotte, NC, USA). Extracts were eluted using a positive pressure manifold. Refer to Supplementary Text S2 for complete details of the extraction method.\nTargeted, quantitative analysis of the thyroid hormone levels was conducted using a 6500+ QTRAP liquid chromatography/mass spectrometer system (Sciex, Framingham, MA, USA) operated in positive ion multiple reaction monitoring (MRM) scan mode with electrospray ionization (ESI). […] Gradient elution was obtained using eluent A (0.1% formic acid; FA (aqueous)) and eluent B (MeOH with 0.1% FA). The gradient used is found in Table S4. Additional instrument parameters can be found in Table S5 and monitored transitions in Table S6. Statistical analysis is described in Supplementary Text S3. […]\nSupport ing Text S1: Chemicals\nChemicals used for solvent and mobile phases include methanol (MeOH), water (H2O), and acetonitrile (ACN) which were LC/MS grade and purchased from Honeywell Burdick & Jackson (Charlotte, NC, USA). Ethanol (EtOH) used as a solvent was ACS grade and purchased from Honeywell Burdick & Jackson. Ammonium formate (BioUltra purity) and ammonium acetate (99% pure) were used as mobile phase additives and obtained from Millipore Sigma (St. Louis, MO, USA). Formic acid (FA; 97.5% pure) was also used as an additive; it was purchased from Honeywell Fluka (Charlotte, NC, USA).\nDetailed information for chemicals used for each analysis may be found in Table S1.\nSupport ing Text S2: Thyroid Hormone Chemicals and Analysis\n3,3’,5-Triiodothyronine (Chemical Abstract Service Registry Number (CASRN) 6893-02-3 | U.S.\nEnvironmental Protection Agency (U.S. EPA) Distributed Structure-Searchable Toxicity (DSSTox) substance identifier (DTXSID) DTXSID8023216 | T3; ˃ 99% pure), mass-labeled 3,3’,5-triiodothyronine […]\n98% pure), mass-labeled 3,3’,5’-triiodothyronine hydrochloride (13C6-rT3; ˃ 99% pure), L-thyroxine […]\npure) were purchased from Cerilliant Corporation (Round Rock, Texas, USA).\nBriefly, a 20 µL aliquot of plasma from each sample was loaded into individual wells of a 96-well collection plate. They were spiked with 5 µL of a 40 ng/mL 13C6-T3, 13C6-rT3 and 13C6-T4 mixed solution followed by 1N hydrochloric acid (HCl) (20 µL) (36.5-38%, Fisher Scientific. Waltham, MA, USA), H2O (100 µL), and a 50:50 H2O/ACN solution (vol/vol) (60 µL) containing 0.1% formic acid (FA). Samples were vortexed, incubated at 37 °C for 2 hours, and brought to room temperature. They were diluted with an aqueous 0.1% acetic acid solution (LC/MS grade, Honeywell Fluka) and vortexed. The SPE well plates (Evolute CX, 96-well SPE plate, 10 mg, 1 mL, Biotage, Charlotte, NC, USA), processed with a positive pressure manifold, were conditioned with methanol followed by an aqueous 0.1% acetic acid solution prior to sample loading with low pressure. Plate wells were washed with 0.1% acetic acid followed by methanol. Thyroid hormones were eluted into a collection plate with 2.5% ammonium hydroxide (NH4OH) (28-30%, Thermo Fisher Scientific, Waltham, MA, USA) in methanol. Extracts were then evaporated to dryness with nitrogen using a Turbovap (Biotage) then reconstituted in 100 µL of 25:75 ACN/H2O (vol/vol) with 0.1% acetic acid. Extracts were stored in amber micro-sampling vials (Agilent Technologies, Santa Clara, CA, USA) prior to instrumental analysis.\nSamples were quantitated against matrix-matched calibration curves containing a minimum of 5 points spanning the range 0.005 – 25.00 ng/mL. Calibration standards were made by combining T3, rT3, and T4 analytes with the 13C6-T3, 13C6-rT3, and 13C6-T4 internal standards then with commercial rat […]"}, "[2]": {"test": "Liver-to-plasma partitioning (Kp)", "format": "in vivo, Sprague Dawley rats", "conditions": "Sprague Dawley, rat, oral, 5 days", "procedure": "Liver samples were analyzed using the same analytical assessment procedure as the plasma dosimetry samples. Matrix blanks were analyzed with each sample set. HFPO-TeA was not detected in the blanks above the limit of quantitation (LOQ) of 1.58 µM. Statistical analysis is described in Supplementary Text S3, normalization calculations are described in Supplementary Text S5 [47], and the liver-to-plasma partitioning calculation is outlined in Supplementary Text S7 [32, 50, 51]. […]\ntube, and then further crashed with 200 µL ACN. This was repeated twice more to generate a final combined supernatant volume of 600 µL. Supernatants were stored at -20 °C prior to analysis.\nSamples were quantitated against matrix-matched calibration curves containing a minimum of 5 points spanning the range 0.99 – 141 ng/mg liver (wet weight, ww). For the calibration standards, commercial rat liver (BioIVT) was spiked with HFPO-TeA and PFHxDA, homogenized, and extracted using the above procedure.\nSupport ing Text S7: Plasma-to-Liver Partitioning Calculations\nConcentrations of HFPO-TeA in liver and plasma were used to calculate experimental Kp values for both sexes across all dose levels using Equation A [3-5]."}}, "note": "Where two headings read alike, the source gives them in different places."}
{"smiles": "O=C(O)C(F)(OC(F)(F)C(F)(OC(F)(F)C(F)(OC(F)(F)C(F)(F)C(F)(F)F)C(F)(F)F)C(F)(F)F)C(F)(F)F", "note": "(stereo not shown) [HFPO-TeA, perfluoro-(2,5,8-trimethyl-3,6,9-trioxadodecanoic) acid]", "values": [{"measurement": "rT3 Conc. in plasma", "setting": "[1]; 0.3 mg/kg/day, F, individual rats, LOQ 0.005 ng/mL", "value": "< LOQ"}, {"measurement": "rT3 Conc. in plasma", "setting": "[1]; 0.3 mg/kg/day, M, individual rats, LOQ 0.005 ng/mL", "value": "< LOQ"}, {"measurement": "rT3 Conc. in plasma", "setting": "[1]; 0.9 mg/kg/day, F, individual rats, LOQ 0.005 ng/mL", "value": "< LOQ"}, {"measurement": "rT3 Conc. in plasma", "setting": "[1]; 0.9 mg/kg/day, F, mean ± SD of replicates above LOQ (0.005 ng/mL)", "value": "<LOQ"}, {"measurement": "rT3 Conc. in plasma", "setting": "[1]; 0.9 mg/kg/day, M, individual rats, LOQ 0.005 ng/mL", "value": "< LOQ"}, {"measurement": "rT3 Conc. in plasma", "setting": "[1]; 0.9 mg/kg/day, M, mean ± SD of replicates above LOQ (0.005 ng/mL)", "value": "< LOQ"}, {"measurement": "rT3 Conc. in plasma", "setting": "[1]; 2.3 mg/kg/day, F, individual rats, LOQ 0.005 ng/mL", "value": "< LOQ"}, {"measurement": "rT3 Conc. in plasma", "setting": "[1]; 2.3 mg/kg/day, M, individual rats, LOQ 0.005 ng/mL", "value": "< LOQ"}, {"measurement": "rT3 Conc. in plasma", "setting": "[1]; 6.3 mg/kg/day, F, individual rats, LOQ 0.005 ng/mL", "value": "< LOQ"}, {"measurement": "rT3 Conc. in plasma", "setting": "[1]; 6.3 mg/kg/day, M, individual rats, LOQ 0.005 ng/mL", "value": "< LOQ"}, {"measurement": "rT3 Conc. in plasma", "setting": "[1]; 17 mg/kg/day, F, individual rats, LOQ 0.005 ng/mL", "value": "< LOQ"}, {"measurement": "rT3 Conc. in plasma", "setting": "[1]; 17 mg/kg/day, M, individual rats, LOQ 0.005 ng/mL", "value": "< LOQ"}, {"measurement": "Kp at 120 h", "setting": "[2]; female, 0.3 mg/kg/day, F, mean ± SD n=4, read-out: Liver Kp (liver-to-plasma ratio)", "value": "7.81 ± 4.68"}, {"measurement": "Kp at 120 h", "setting": "[2]; female, 0.9 mg/kg/day, F, mean ± SD n=4, read-out: Liver Kp (liver-to-plasma ratio)", "value": "4.04 ± 1.37"}, {"measurement": "Kp at 120 h", "setting": "[2]; female, 2.3 mg/kg/day, F, mean ± SD n=4, read-out: Liver Kp (liver-to-plasma ratio)", "value": "1.9 ± 1.47"}, {"measurement": "Kp at 120 h", "setting": "[2]; female, 6.3 mg/kg/day, F, mean ± SD n=4, read-out: Liver Kp (liver-to-plasma ratio)", "value": "1.65 ± 0.46"}, {"measurement": "Kp at 120 h", "setting": "[2]; female, 17 mg/kg/day, F, mean ± SD n=4, read-out: Liver Kp (liver-to-plasma ratio)", "value": "0.903 ± 0.145"}, {"measurement": "Kp at 120 h", "setting": "[2]; male, 0.3 mg/kg/day, M, mean ± SD n=4, read-out: Liver Kp (liver-to-plasma ratio)", "value": "7.28 ± 3.71"}, {"measurement": "Kp at 120 h", "setting": "[2]; male, 0.9 mg/kg/day, M, mean ± SD n=4, read-out: Liver Kp (liver-to-plasma ratio)", "value": "3.38 ± 1.24"}, {"measurement": "Kp at 120 h", "setting": "[2]; male, 2.3 mg/kg/day, M, mean ± SD n=4, read-out: Liver Kp (liver-to-plasma ratio)", "value": "1.54 ± 0.91"}, {"measurement": "Kp at 120 h", "setting": "[2]; male, 6.3 mg/kg/day, M, mean ± SD n=4, read-out: Liver Kp (liver-to-plasma ratio)", "value": "3.41 ± 0.6"}, {"measurement": "Kp at 120 h", "setting": "[2]; male, 17 mg/kg/day, M, mean ± SD n=4, likely influenced by high toxicity and stress, read-out: Liver Kp (liver-to-plasma ratio)", "value": "1.32 ± 0.55"}]}
